{
  "source": "patent US20100080757A1",
  "about": "“METHOD OF DETECTING ABNORMAL TISSUE” (priority 2005, published 2010)",
  "key": {"normal liver": {"system": "normal liver", "experiment": "Functional CT perfusion before and after acetazolamide, normal liver", "format": "in vivo, New Zealand White rabbits", "conditions": "acetazolamide 50 mg/kg IV, mean±SE", "excerpt": "(§1) All animal procedures were approved by the Institutional Animal Care and Use Committee at Case Western Reserve University. The VX2 tumor, a xenograft hepatoma model used frequently in radiological studies, was donated by S, Nahum Goldberg MD, (Beth Israel Medical Center, Boston, Mass.). Tumor was initiated in livers of 5 male New Zealand White rabbits weighing 3 kg (Covance, Princeton, N.J.) using methods described previously. The tumor was first propagated in the thigh of a donor rabbit, where a suspension of tumor cells was injected intramuscularly into one thigh. The tumor was grown until the palpated size reached approximately 1 cm^3 and was harvested from anesthetized animals using sterile techniques. Pieces of the tumor (4 mm^3) were cut, placed in 10% DMSO in pure calf's serum, and stored in liquid nitrogen.\n(§2) For implantation in the liver, frozen tumor was rapidly thawed and washed. Rabbits were anesthetized using a combination of xylazine (5 mg/kg), ketamine (50 mg/kg), acepromazine (2 mg/kg) and atropine (0.2 mg/kg). The abdomen was shaved and cleaned, and the liver was exposed. A piece of tumor was then inserted into the liver parenchyma and the incisions were closed. During recovery, all animals received Buprenex (0.5 mg/kg) for pain management and a subcutaneous injection of 25 ml of 0.9% saline. Additional Buprenex and saline were given as needed.\n(§3) Liver perfusion maps were created 28 days after initiation of the tumor by tracking contrast enhancement on eight sequential CT images (acquired on the Mx8000 IDT, Philips Medical scanner) before and after IV injection of acetazolamide. During each CT exam, first an unenhanced baseline scan was carried out. […]\n(§4) A CT perfusion software package available from the scanner manufacturer was used for all perfusion measurements. […] Arterial and portal perfusion were calculated by measuring the slope of the time-density curve before (arterial) and after (venous) peak splenic enhancement and normalizing by the vascular input. A mean percent change in perfusion before and after CAI injection was calculated. […]"}, "hepatic artery": {"system": "hepatic artery", "experiment": "Hepatic artery blood flow after intravenous acetazolamide", "format": "in vivo", "conditions": "100 mg/kg intravenously; for Blood flow in the hepatic artery: before about 2.8 ml/min", "excerpt": "The amount of vasoactive agent administered to the subject to cause a noticeable increase or decrease in blood flow to the tissue of interest will depend on the specific agent administered to the subject."}, "[1]": {"system": "inflammatory pseudotumor (benign liver lesion)", "experiment": "Contrast-enhanced CT before and after acetazolamide in a biopsy patient", "format": "in vivo, Humans", "method": "FIG. 10 is a plot illustrating CT perfusion analysis of a biopsy proven inflammatory pseudotumor before and after acetazolamide (AZ) administration (AZ 250 mg+50 mL Optiray 320).\nSeveral preliminary studies have been carried out using a protocol approved by the Institutional Review Board (IRB) of University Hospitals of Cleveland (FIGS. 10-11). One patient undergoing routine biopsy was screened using a pre- and post-acetazolamide injection contrast-enhanced CT scans. Following the scans, a biopsy of the tissue was taken and sent for routine histological analysis. On the image data, standard region of interest (ROI) analysis was used to obtain signal intensity values (in Hounsfield units or HU) over 600 seconds in normal liver and the mass. […] Our general hypothesis is that normal vessels either in normal liver or benign lesions respond to the vasodilatation, so the decrease in conspicuity results from dilatation of both vessel sites. […] This was confirmed by histological diagnosis. A patient with a suspected recurrent tumor underwent a similar protocol as above. Again, on the baseline scan, the lesion enhances less than the normal liver. […] Instead of creating a “steal”, the flow increases flow in the lesion indicating it has normal vessels consistent with benign inflammation. Again, the results were confirmed with CT-guided biopsy."}, "liver": {"system": "liver", "conditions": "Taki et al.; without systemic effects; cited from earlier work"}, "kidney": {"system": "kidney", "conditions": "Taki et al.; without systemic effects; cited from earlier work"}, "[2]": {"system": "suspected recurrent tumor in liver", "experiment": "MR of suspected recurrent liver tumor without and after Diamox", "format": "in vivo, Humans", "conditions": "post Diamox scan vs baseline scan; lesion confirmed benign inflammation", "excerpt": "FIGS. 11(a-c) are MR of suspected recurrent tumor in liver without (A) and after (B) vasodilator (Diamox), and image-guided biopsy confirmation (C). In A and B, the solid line corresponds to the lesion and the “dashed” line corresponds to the normal liver.\nSeveral preliminary studies have been carried out using a protocol approved by the Institutional Review Board (IRB) of University Hospitals of Cleveland (FIGS. 10-11). One patient undergoing routine biopsy was screened using a pre- and post-acetazolamide injection contrast-enhanced CT scans. Following the scans, a biopsy of the tissue was taken and sent for routine histological analysis. On the image data, standard region of interest (ROI) analysis was used to obtain signal intensity values (in Hounsfield units or HU) over 600 seconds in normal liver and the mass. […] Our general hypothesis is that normal vessels either in normal liver or benign lesions respond to the vasodilatation, so the decrease in conspicuity results from dilatation of both vessel sites. […] This was confirmed by histological diagnosis. A patient with a suspected recurrent tumor underwent a similar protocol as above. Again, on the baseline scan, the lesion enhances less than the normal liver. […] Instead of creating a “steal”, the flow increases flow in the lesion indicating it has normal vessels consistent with benign inflammation. […]"}, "VX2 tumor": {"system": "VX2 tumor", "experiment": "Functional CT perfusion before and after acetazolamide, tumor peripheral rim", "format": "in vivo, New Zealand White rabbits", "conditions": "peripheral rim of untreated tumor, day 28; acetazolamide 50 mg/kg IV; mean±SE", "excerpt": "as §1, §2, §3, §4"}, "small hepatoma": {"system": "small hepatoma", "experiment": "MRI perfusion study, baseline and AZ enhanced", "format": "in vivo", "excerpt": "FIGS. 7(a-b) are plots illustrating MRI perfusion study with the solid line showing flow in a small hepatoma and the dotted line showing flow in the normal parenchyma. FIG. 7a illustrates a baseline perfusion study showing quicker and higher enhancement of tumor vs normal liver."}, "normal prostate vessels": {"system": "normal prostate vessels", "experiment": "DCE MRI of the normal prostate with vasoactive drugs", "format": "in vivo, person", "method": "A person with no history of prostate cancer and normal PSA, volunteered for multiple DCE MRI exams of the prostate to evaluate vasoactive modulation of the normal blood flow. Three separate examinations were performed several weeks apart. The studies were performed on a Siemens 1.5T Symphony scanner. The DCE MRI examination included, Siemens's tfiperf, (inversion fisp) sequence. TR=3000, TE=1.27, TI=400 flip angle=50. Gadolinium Veresetamide […], injection at 2 cc/sec for a total of 20 cc. Images were obtained every 3 seconds for a total period of 5 minutes and every minute thereafter for 15 minutes.\nAll three studies were performed with identical MRI sequences and parameters. The first study was performed without a vasoactive drug but the second and third study were repeated with administration of a vasoactive drug, silfenadil or pseudoephedrine. […] The third DCE MRI was performed identical to the second study with the oral administration of 25 mg of silfenadil one hour before the study, and the administration of 60 mg of pseudoephedrine 20 minutes preceding the gadolinium injection. The absorption rate of each drug is quite predictable according to the literature so the initial part of the study performed before the pseudoephedrine was vasodilated and the subsequent study had vasodilator combined with a vasoconstrictor.\nData analysis was performed using ANALYZE data management software (Analyze Direct, Inc., Lenexa, Kans., 66215, USA) and Excel (Microsoft, Seattle, Wash.).\nData graphs were normalized to the blood flow of the iliac artery. The data was acquired during the five minute period following intravenous gadolinium injection and thereby provides a semiquantitative assessment of blood flow characteristics, see below data discussion."}, "woodchuck hepatoma": {"system": "woodchuck hepatoma", "experiment": "FDG PET uptake curves with and without phenylephrine", "format": "in vivo", "conditions": "PET with FDG and phenylephrine vs baseline FDG alone", "excerpt": "FIG. 8 is a plot illustrating FDG uptake curves in woodchuck hepatoma from two PET studies."}, "lung cancer": {"system": "lung cancer", "experiment": "FDG PET of lung cancer before and after oral pseudoephedrine", "format": "in vivo", "conditions": "after oral pseudoephedrine; baseline SUV 4.8", "excerpt": "FIGS. 9(a-b) are baseline CT (A) and corresponding PET (B) images of lung cancer. FIGS. 9(c-d) are images illustrating Tumor after oral pseudoephedrine. The tumor has not changed size on CT but has increased PET signal. SUV increased from 4.8 to 8.8, presumably due to increased blood flow to tumor and capture of FDG."}, "[3]": {"conditions": "between 21 seconds and 72 seconds, 25 mg oral one hour prior"}, "[4]": {"conditions": "gadolinium after sildenafil, FIG. 13 legend"}},
  "data": [
    {"smiles": "CC(=O)Nc1nnc(S(N)(=O)=O)s1", "note": "[acetazolamide]", "values": [
      {"measurement": "Change in arterial perfusion", "setting": "normal liver", "result": "−3±33", "unit": "%"},
      {"measurement": "Change in total perfusion", "setting": "normal liver", "result": "41±18", "unit": "%"},
      {"measurement": "Change in venous perfusion", "setting": "normal liver", "result": "31±18", "unit": "%"},
      {"measurement": "Increase in the blood flow through the hepatic artery", "setting": "hepatic artery", "result": "about 18%"},
      {"measurement": "Blood flow in the hepatic artery", "setting": "hepatic artery; after about 10 minutes", "result": "about 3.1 ml/min"},
      {"measurement": "Blood flow in the hepatic artery", "setting": "hepatic artery; after about 20 minutes", "result": "about 3.3 ml/min"},
      {"measurement": "Conspicuity", "setting": "[1]; after AZ injection (AZ 250 mg), 32 HU before, benign lesion", "result": 15, "unit": "HU"},
      {"measurement": "Blood flow / signal intensity", "setting": "[1]; post-acetazolamide contrast-enhanced CT, normal liver and mass", "result": "increases in the normal liver and in the mass"},
      {"measurement": "Increase in blood flow to the liver", "setting": "liver", "result": "75+/−36%"},
      {"measurement": "Increase in blood flow to the kidney", "setting": "kidney", "result": "33+/−11%"},
      {"measurement": "Enhancement of the lesion", "setting": "[2]", "result": "increases relative to the normal liver"},
      {"measurement": "Change in arterial perfusion", "setting": "VX2 tumor", "result": "−31±9", "unit": "%"},
      {"measurement": "Change in total perfusion", "setting": "VX2 tumor", "result": "−30±7", "unit": "%"},
      {"measurement": "Change in venous perfusion", "setting": "VX2 tumor", "result": "−20±12", "unit": "%"},
      {"measurement": "Enhancement of tumor vs normal liver", "setting": "small hepatoma", "result": "decrease in enhancement of the tumor compared to the normal liver"}
    ]},
    {"smiles": "CCCc1nn(C)c2c(=O)[nH]c(-c3cc(S(=O)(=O)N4CCN(C)CC4)ccc3OCC)nc12", "note": "[sildenafil]", "values": [
      {"measurement": "Enhancement of the prostate gland on MRI image", "setting": "normal prostate vessels; after sildenafil 50 mg and gadolinium, vs study without Viagra (FIG. 16)", "result": "greater enhancement of the gland"},
      {"measurement": "Increase of lateral lobe enhancement vs baseline study", "setting": "normal prostate vessels; [3]", "result": 78, "unit": "%"},
      {"measurement": "Increase of medial lobe enhancement vs baseline study", "setting": "normal prostate vessels; [3]", "result": 73, "unit": "%"},
      {"measurement": "Enhancement greater than the enhanced undilated study, medial lobe", "setting": "normal prostate vessels; [4]", "result": 78, "unit": "%"},
      {"measurement": "Maximum enhancement greater than the enhanced, undilated study, lateral lobe", "setting": "normal prostate vessels; [4]", "result": 73, "unit": "%"},
      {"measurement": "Increase of enhancement curve vs baseline enhancement curve", "setting": "normal prostate vessels; throughout the entire scan period of 5 minutes (300 seconds), 25 mg oral one hour prior", "result": "more than 70%"}
    ]},
    {"smiles": "CNC[C@H](O)c1cccc(O)c1", "note": "[phenylephrine]", "values": [
      {"measurement": "FDG uptake in lesion", "setting": "woodchuck hepatoma", "result": "increased uptake"}
    ]},
    {"smiles": "CN[C@@H](C)[C@@H](O)c1ccccc1", "note": "[pseudoephedrine]", "values": [
      {"measurement": "Reduction in the enhancement", "setting": "normal prostate vessels; after 14 minutes, pseudoephedrine 60 mg oral on top of silfenadil 25 mg oral", "result": "about 20%"},
      {"measurement": "Intensity in the equilibration phase", "setting": "normal prostate vessels; at 14 minutes, pseudoephedrine 60 mg oral after Sildenafil 25 mg oral", "result": "definite decrease in intensity"},
      {"measurement": "SUV (FDG PET signal of tumor)", "setting": "lung cancer", "result": 8.8}
    ]}
  ]
}
